# From patent US20260207600A1, “METHODS OF TREATMENT WITH MYOSIN MODULATOR” (MYOKARDIA, INC., priority 2019, published 2026)
# Test system: subjects with symptomatic non-obstructive hypertrophic cardiomyopathy (nHCM)
# Assay: […]-HCM Phase 2 randomized, double-blind, placebo-controlled, concentration-guided study
# Format: in vivo, human
# Details: baseline and week 16
smiles,measurement,value
"CC(C)n1c(=O)cc(N[C@@H](C)c2ccccc2)[nH]c1=O [mavacamten, (S)-3-Isopropyl-6-((1-phenylethyl)amino)pyrimidine-2, 4(1H,3H)-dione]","hs-cTnI, post-hoc analysis of banked serum samples",confirmed the reduction in cTnI
